Consider 32 compounds from patent US20240124444A1 (Celgene Corporation, priority 2020, published 2024).

One may read the EC50 as the concentration needed to bring the measured effect to its halfway point.

The subject of the test is C. parvum strain UGA1. The experiment in a line: C. parvum growth inhibition assay (Nluc luminescence in HCT-8 cells). Format: cell-based, Cryptosporidium parvum. Conditions: for inhibition at 1 µM / inhibition at 10 µM / EC50: Cryptosporidium parvum; for inhibition at 1 µM / inhibition at 10 µM: HCT-8; for inhibition at 1 µM: read-out: % inh @ 1 uM C. parvum; for inhibition at 10 µM: read-out: % inh @ 10 uM C. parvum; for EC50: HCT-8, 48 h, C. parvum growth inhibition in HCT-8 cells, 48 hours, 6 concentrations 10-0.04 μM.

[1] abbreviates: single point inhibition @ 10 uM.
The mark [2] stands for this setting: single point inhibition at 1 uM.
Setting [3] is: single point inhibition at 10 uM.

Molecules are shown by their SMILES. Like-named read-outs stand apart in the source and are kept apart here.

With `COc1cc(Nc2cc3[nH]c(-c4ccncc4)cc3cn2)cc(-n2cncn2)c1` [Example 140, N-(3-methoxy-5-(1H-1,2,4-triazol-1-yl)phenyl)-2-(pyridin-4-yl)-1H-pyrrolo[3,2-c]pyridin-6-amine], the inhibition at 1 µM (single point inhibition @ 1 uM) lay in the range of 0 to 33%. The inhibition at 10 µM under setting [1] was 67 to 100%.
On to `COc1nccc(-c2cc3cnc(NC(=O)c4cnn(C(C)C)c4)cc3n2C)n1` [Example 309, 1-isopropyl-N-(2-(2-methoxypyrimidin-4-yl)-1-methyl-1H-pyrrolo[3,2-c]pyridin-6-yl)-1H-pyrazole-4-carboxamide], for which the inhibition at 1 µM under setting [2] is 0 to 33%. Under setting [3], the inhibition at 10 µM lay in the range of 0 to 33%.
In the case of `FC(F)(F)CNc1nccc(-c2cc3cnc(NC4CCOC4)cc3[nH]2)n1` (stereo in doubt) [Example 366, (R)-N-(tetrahydrofuran-3-yl)-2-(2-(2,2,2-trifluoroethylamino)pyrimidin-4-yl)-1H-pyrrolo[3,2-c]pyridin-6-amine], the EC50 was < 0.5 µM.
On to `N#Cc1cc2cnc(Nc3cnn(C4CCOCC4)c3)cc2[nH]1` [Example 151, 6-(1-(tetrahydro-2H-pyran-4-yl)-1H-pyrazol-4-ylamino)-1H-pyrrolo[3,2-c]pyridine-2-carbonitrile], for which, for the setting “single point inhibition @ 1 uM”, the inhibition at 1 µM fell in the range of 0 to 33%. Under setting [1], the inhibition at 10 µM was 67 to 100%.
For `Cn1c(-c2ccnc(NCC(F)(F)F)n2)cc2cnc(NC3CCOCC3)cc21` [Example 358, 1-methyl-N-(tetrahydro-2H-pyran-4-yl)-2-(2-(2,2,2-trifluoroethylamino)pyrimidin-4-yl)-1H-pyrrolo[3,2-c]pyridin-6-amine], the EC50 is < 0.5 µM.
Consider `Cn1cc(Nc2cc3[nH]c(C#N)cc3cn2)cn1` [Example 164, 6-(1-methyl-1H-pyrazol-4-ylamino)-1H-pyrrolo[3,2-c]pyridine-2-carbonitrile], for which the inhibition at 1 µM (single point inhibition @ 1 uM) fell in the range of 0 to 33%. Further, the inhibition at 10 µM under setting [1] lay within 67 to 100%.
In the case of `O=C(Nc1cc2[nH]c(C3CC(F)(F)C3)cc2cn1)C1CC1` [Example 53, N-(2-(3,3-difluorocyclobutyl)-1H-pyrrolo[3,2-c]pyridin-6-yl)cyclopropanecarboxamide], the EC50 was > 1 µM.
On to `O=C(Nc1cc2[nH]c(-c3ccnc(OCCCF)n3)cc2cn1)c1cnn(CC2CCCO2)c1` (stereo in doubt) [Example 171, (S)-N-(2-(2-(3-fluoropropoxy)pyrimidin-4-yl)-1H-pyrrolo[3,2-c]pyridin-6-yl)-1-((tetrahydrofuran-2-yl)methyl)-1H-pyrazole-4-carboxamide], for which the inhibition at 1 µM (single point inhibition @ 1 uM) was 0 to 33%. Further, under setting [1], the inhibition at 10 µM lay in the range of 67 to 100%.
Take `Cc1nccc(-c2cc3cnc(NC(=O)c4cnn(C)c4)cc3[nH]2)c1F` [Example 283, N-(2-(3-fluoro-2-methylpyridin-4-yl)-1H-pyrrolo[3,2-c]pyridin-6-yl)-1-methyl-1H-pyrazole-4-carboxamide]: the inhibition at 1 µM under setting [2] is 0 to 33%. Moreover, the inhibition at 10 µM under setting [3] lay in the range of 0 to 33%.
As for `Cc1cc(Nc2cc3[nH]c(-c4cccnc4)cc3cn2)cc(-n2cncn2)c1` [Example 337, N-(3-methyl-5-(1H-1,2,4-triazol-1-yl)phenyl)-2-(pyridin-3-yl)-1H-pyrrolo[3,2-c]pyridin-6-amine], under setting [2], the inhibition at 1 µM is 0 to 33%. Under setting [3], the inhibition at 10 µM was 0 to 33%.
On to `Cc1nn(C)cc1C(=O)Nc1cc2c(cn1)cc(-c1ccnc(NCC(F)(F)F)n1)n2C` [Example 240, 1,3-dimethyl-N-(1-methyl-2-(2-(2,2,2-trifluoroethylamino)pyrimidin-4-yl)-1H-pyrrolo[3,2-c]pyridin-6-yl)-1H-pyrazole-4-carboxamide], for which the inhibition at 1 µM under setting [2] lay within 0 to 33%. For the same compound, the inhibition at 10 µM under setting [3] lay within 0 to 33%.
Turning to `Cn1cc(-c2cc3cnc(NC(=O)C4CC4)cc3n2C)cn1` [Example 102, N-(1-methyl-2-(1-methyl-1H-pyrazol-4-yl)-1H-pyrrolo[3,2-c]pyridin-6-yl)cyclopropanecarboxamide], the EC50 was > 1 µM.
Turning to `CCOc1nccc(-c2cc3cnc(NC(=O)c4ccc(OC)c(OC)c4)cc3[nH]2)n1` [Example 321, N-(2-(2-ethoxypyrimidin-4-yl)-1H-pyrrolo[3,2-c]pyridin-6-yl)-3,4-dimethoxybenzamide], the inhibition at 1 µM under setting [2] fell in the range of 0 to 33%. Further, the inhibition at 10 µM under setting [3] lay within 0 to 33%.
`FC(F)(F)c1cc2cnc(NC3CCOCC3)cc2[nH]1` [Example 71, N-(tetrahydro-2H-pyran-4-yl)-2-(trifluoromethyl)-1H-pyrrolo[3,2-c]pyridin-6-amine]: the EC50 was > 1 µM.
Turning to `Cc1cc(-c2cc3cnc(NC(=O)[C@H]4CCCO4)cc3[nH]2)ccn1` [Example 212, (R)-N-(2-(2-methylpyridin-4-yl)-1H-pyrrolo[3,2-c]pyridin-6-yl)tetrahyrdofuran-2-carboxamide], the “% inh @ 1 uM C. parvum” value under setting [2] was “D (single point inhibition values of 0-33% (activity level D))”. Moreover, the “% inh @ 10 uM C. parvum” value under setting [3] was “F (between 67% and 100% (activity level F))”.
Take `Cc1cc(-c2cc3cnc(NC(=O)C4(C)CC4)cc3[nH]2)ccn1` [Example 95, 1-methyl-N-(2-(2-methylpyridin-4-yl)-1H-pyrrolo[3,2-c]pyridin-6-yl)cyclopropanecarboxamide]: the EC50 is > 1 µM.
In the case of `Cn1ccc(-c2cc3cnc(NC(=O)C4CC4)cc3n2C)n1` [Example 345, N-(1-methyl-2-(1-methyl-1H-pyrazol-3-yl)-1H-pyrrolo[3,2-c]pyridin-6-yl)cycloproapnecarboxamide], the EC50 was > 1 µM.
Regarding `Cn1cc(C(=O)Nc2cc3[nH]c(-c4cnco4)cc3cn2)cn1` [Example 64, 1-methyl-N-(2-(oxazol-5-yl)-1H-pyrrolo[3,2-c]pyridin-6-yl)-1H-pyrazole-4-carboxamide], the half-maximal effective concentration (EC50) was > 1 µM. Further, the inhibition at 1 µM (single point inhibition @ 1 uM) was in the range of 0 to 33%. The inhibition at 10 µM under setting [1] was 33 to 66%.
Regarding `Cc1ccccc1-c1cc2cnc(NC3CCOCC3)cc2[nH]1` [Example 357, N-(tetrahydro-2H-pyran-4-yl)-2-o-tolyl-1H-pyrrolo[3,2-c]pyridin-6-amine], the EC50 was > 1 µM.
In the case of `Cc1cc(-c2cc3cnc(Nc4cccc(-c5nc[nH]n5)c4)cc3[nH]2)ccn1` [Example 66, N-(3-(1H-1,2,4-triazol-3-yl)phenyl)-2-(2-methylpyridin-4-yl)-1H-pyrrolo[3,2-c]pyridin-6-amine], the EC50 was > 1 µM. In addition, for the setting “single point inhibition @ 1 uM”, the inhibition at 1 µM lay within 67 to 100%. Besides, the inhibition at 10 µM under setting [1] lay within 67 to 100%.
In the case of `Cn1cc(C(=O)Nc2cc3c(cn2)cc(-c2ccnc(C(F)(F)F)n2)n3C)cn1` [Example 200, 1-methyl-N-(1-methyl-2-(2-(trifluoromethyl)pyrimidin-4-yl)-1H-pyrrolo[3,2-c]pyridin-6-yl)-1H-pyrazole-4-carboxamide], the inhibition at 1 µM under setting [2] was in the range of 33 to 66%. For the same compound, under setting [3], the inhibition at 10 µM was in the range of 67 to 100%.
For `O=C(CC1CCCC1)Nc1cc2[nH]c(-c3ccncc3)cc2cn1` [Example 207, 2-cyclopentyl-N-(2-(pyridin-4-yl)-1H-pyrrolo[3,2-c]pyridin-6-yl)acetamide], in that order: 0 to 33% and 67 to 100%.
As to `Cn1c(-c2ccnc(NCC(F)(F)F)c2)cc2cnc(NC3CCOCC3)cc21` [Example 382, 1-methyl-N-(tetrahydro-2H-pyran-4-yl)-2-(2-(2,2,2-trifluoroethylamino)pyridin-4-yl)-1H-pyrrolo[3,2-c]pyridin-6-amine], the concentration for a half-maximal effect (EC50) is > 1 µM.
For `CNc1cc2c(cn1)cc(-c1ccnc(NCC(F)(F)F)n1)n2C` [Example 390, N,1-dimethyl-2-(2-(2,2,2-trifluoroethylamino)pyrimidin-4-yl)-1H-pyrrolo[3,2-c]pyridin-6-amine], the concentration giving a half-maximal response (EC50) is > 1 µM.
As for `Cc1ccc(-c2cc3cnc(NC4CCOCC4)cc3[nH]2)cc1` [Example 351, N-(tetrahydro-2H-pyran-4-yl)-2-p-tolyl-1H-pyrrolo[3,2-c]pyridin-6-amine], the concentration for a half-maximal effect (EC50) is > 1 µM.
The same measure, in the same setting: the result for `Cc1cc(-c2[nH]c3cc(NC4CCCCC4)ncc3c2C)ccn1` [Example 369, N-cyclohexyl-3-methyl-2-(2-methylpyridin-4-yl)-1H-pyrrolo[3,2-c]pyridin-6-amine] reads > 1 µM; that for `Cc1cc(-c2cc3cnc(NC4CCNCC4)cc3n2C)ncn1` [Example 120, 1-methyl-2-(6-methylpyrimidin-4-yl)-N-(piperidin-4-yl)-1H-pyrrolo[3,2-c]pyridin-6-amine], > 1 µM.
On the same count and under the same terms, the result for `Cc1ccnc(-c2cc3cnc(NC(=O)C4CC4)cc3n2C)c1` [Example 73, N-(1-methyl-2-(4-methylpyridin-2-yl)-1H-pyrrolo[3,2-c]pyridin-6-yl)cyclopropanecarboxamide] reads > 1 µM.
In the case of `Cn1cc(C(=O)Nc2cc3c(cn2)cc(-c2ccnc(NCC(F)(F)F)n2)n3CCO)cn1` [Example 80, N-(1-(2-hydroxyethyl)-2-(2-(2,2,2-trifluoroethylamino)pyrimidin-4-yl)-1H-pyrrolo[3,2-c]pyridin-6-yl)-1-methyl-1H-pyrazole-4-carboxamide], the 50% effective concentration (EC50) was > 1 µM. Besides, the inhibition at 1 µM (single point inhibition @ 1 uM) lay within 0 to 33%. For the same compound, the inhibition at 10 µM under setting [1] was 33 to 66%.
As to `Cc1cccc(-c2cc3cnc(NC(=O)C4CC4)cc3n2C)n1` [Example 69, N-(1-methyl-2-(6-methylpyridin-2-yl)-1H-pyrrolo[3,2-c]pyridin-6-yl)cyclopropanecarboxamide], the concentration giving a half-maximal response (EC50) was > 1 µM.
In the case of `Cn1cc(C(=O)Nc2cc3[nH]c(-c4cc(C(F)(F)F)ncn4)cc3cn2)cn1` [Example 254, 1-methyl-N-(2-(6-(trifluoromethyl)pyrimidin-4-yl)-1H-pyrrolo[3,2-c]pyridin-6-yl)-1H-pyrazole-4-carboxamide], the inhibition at 1 µM under setting [2] is 0 to 33%. For the same compound, under setting [3], the inhibition at 10 µM was in the range of 0 to 33%.
In the case of `CN(CC(F)(F)F)c1nccc(-c2cc3cnc(NC4CCOCC4)cc3[nH]2)n1` [Example 370, 2-(2-(methyl(2,2,2-trifluoroethyl)amino)pyrimidin-4-yl)-N-(tetrahydro-2H-pyran-4-yl)-1H-pyrrolo[3,2-c]pyridin-6-amine], the EC50 is 0.5 to 1 µM.
